# Like-named read-outs stand apart in the source and are kept apart here.
# Legend:
# [1] = Solubility in spray-drying solvents (visually assessed); type: physicochemical
# Source text: The solubility of Fenretinide/PVP K30 40/60% w/w mixtures was first visually assessed in various ratios of ethanol/dichloromethane. Thereafter, Spray Dryed Intermediates (SDIs) were produced from Fenretinide/PVP K30 40/60% w/w mixture solubilized at 7.5% w/v in ethanol/dichloromethane 90/10 v/v (L215-01009A), 50/50 v/v (L215-01009B) and 10/90 v/v (L215-01009C) systems for a total batch size of 15 g. The solvent was evaporated using Model GA32 Yamato® Lab Spray Dryer with the following operating parameters: 1.2 mm nozzle; about 9-15 g/min feed rate; 1.5 kg/cm^2 atomization air, and 0.35-0.55 m^3/min air flow. The inlet temperature was adjusted according to the solvent system to maintain an outlet temperature between 50-65° C.
# Successive amounts of Fenretinide and PVP K30 40/60% w/w were added in 200 ml of dichloromethane until saturation of the solution. At a total solid loading of 20% w/v (40 g), the addition of Fenretinide and PVP K30 was stopped due to the increase of the solution viscosity. The solution was spray dried (lot L215-01010) with the following process parameters: 11-15 g/min feed rate; 75° C. inlet temperature; 45-48° C. outlet temperature; 0.1-0.3 MPa atomization air, and 0.40 m^3/min air flow.
# [2] = fenretinide in rats; cited from earlier work
compound,measurement,setting,value
"CC1=C(/C=C/C(C)=C/C=C/C(C)=C/C(=O)Nc2ccc(O)cc2)C(C)(C)CCC1 [Fenretinide, all-trans-N-(4-hydroxyphenyl) retinamide]",solubility,"[1]; dichloromethane 100% with PVP K30, organic solvent or mixture, thermodynamic from solid, solubilised with PVP K30 in a ratio of 40/60 w/w, DCM 100%, read-out: solubility of Fenretinide",> 50 mg/mL
same,solubility,"[1]; ethanol 100% with PVP K30, organic solvent or mixture, thermodynamic from solid, solubilised with PVP K30 in a ratio of 40/60 w/w, ethanol 100%, read-out: solubility of Fenretinide",~34 mg/mL
same,solubility,"[1]; ethanol/dichloromethane 50/50 v/v with PVP K30, organic solvent or mixture, thermodynamic from solid, solubilised with PVP K30 in a ratio of 40/60 w/w, ethanol/DCM 50/50 v/v, read-out: solubility of Fenretinide",> 50 mg/mL
same,solubility,[1]; mixture of methanol/dichloromethane (1:1),very soluble
same,solubility,[1]; pure dichloromethane,very soluble
same,"elimination half-life, literature data",[2],7 to 10 h
